Measurements: patent US20220370609A1, “Polymer complex for anticancer immune therapy based on ultrasound comprising oxalate derivatives and Method of preparation thereof” (RESEARCH & BUSINESS FOUNDATION SUNGKYUNKWAN UNIVERSITY, priority 2021, published 2022)

Test system: CT26 cells
Assay: Cell death type by FITC-annexin V and PI staining
Assay type: cell-based
Conditions: 5 μM VPF, 2 hours, ultrasound 5 minutes
Description: CT26 colorectal cells were cultured in an RPMI 1640 medium containing 10% fetal bovine serum (FBS) and 1% antibiotic-antimycotic. 5×10^6 of CT26 cells were treated with Ox@PEG-VPF and the controls for 2 hours based on 5 μM VPF, and then resuspended in 1 ml of the RPMI 1640 medium, followed by ultrasound treatment for 5 minutes.
After 100 μl of the CT26 cell suspension that had been treated with ultrasound was resuspended in 900 μl of the FITC-annexin V/PI mixed solution and maintained for 30 minutes, the resulting cells were washed twice with PBS and observed by confocal microscopy.
Specifically, the Ox@ PEG-VPF of the present invention reacted with a high concentration of ROS present in cancer cells to produce CO2 in the cells, and was treated with a FITC-labeled annexin compound (FITC-annexin V; excitation/emission wavelength—490/525 nm) and propidium iodide (PI; excitation/emission wavelength 535/617 nm) to confirm whether ICD occurs by the cavitation effect and cell membrane rupture caused by ultrasound.

verteporfin [VPF] was tested, and the “cell death type (FITC-annexin V / PI staining)” value was “induced the apoptosis of cancer cells”.
